Values joined by “and” are separate entries in the source; they are usually repeats but may differ in a detail not shown here. Equal values may be shown once.
Columns and labels:
rePON1 (G3H8) = biological target: T1, rePON1 (G3H8) (Oryctolagus cuniculus, UniProt P27170, A301G/A320V/A67S/G19R/H177S/I126T/I187A/K138S/K151R/K297E/K93E/L143V/L7P/M130L/M341L/P82S/S101G/V343I); assay: biochemical
T1 construct: leaving the intact, 355 amino acids, PON1 protein without any additions; made in house; host or cells: E. coli Origami B (DE3), truncated pET32 vector without Trx, His and S tags
T1 sequence (P27170 with tags, fused parts or gaps with the stated changes): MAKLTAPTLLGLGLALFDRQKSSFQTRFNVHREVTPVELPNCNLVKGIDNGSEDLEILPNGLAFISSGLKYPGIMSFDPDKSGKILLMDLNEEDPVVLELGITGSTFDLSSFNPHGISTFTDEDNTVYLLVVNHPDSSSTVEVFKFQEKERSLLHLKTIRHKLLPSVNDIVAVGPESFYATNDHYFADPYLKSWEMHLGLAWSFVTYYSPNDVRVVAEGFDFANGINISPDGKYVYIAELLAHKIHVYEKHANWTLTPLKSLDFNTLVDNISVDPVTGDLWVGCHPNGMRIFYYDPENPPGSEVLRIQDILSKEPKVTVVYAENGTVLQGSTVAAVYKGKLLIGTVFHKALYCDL

[1] = biological target: T2, HuPON1 purified from serum (Homo sapiens, UniProt P27169); details: read-out: Ki for 2-hydroxyquinoline inhibition of phenyl acetate hydrolysis by HuPON1 purified from serum; cited from earlier work
T2 construct: measured for hydrolysis of phenylacetate by serum huPON1; host or cells: human serum
T2 sequence (P27169 whole entry): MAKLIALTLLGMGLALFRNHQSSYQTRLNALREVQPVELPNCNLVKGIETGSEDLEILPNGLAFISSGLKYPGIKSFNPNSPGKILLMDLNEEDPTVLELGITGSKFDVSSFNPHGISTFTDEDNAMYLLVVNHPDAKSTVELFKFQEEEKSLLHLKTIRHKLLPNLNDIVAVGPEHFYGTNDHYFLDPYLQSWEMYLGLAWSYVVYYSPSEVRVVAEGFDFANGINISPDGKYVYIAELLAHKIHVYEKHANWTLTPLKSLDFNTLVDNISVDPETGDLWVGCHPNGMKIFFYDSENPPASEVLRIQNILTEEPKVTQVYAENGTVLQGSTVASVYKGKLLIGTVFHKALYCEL

## Oc1ccc2ccccc2n1 [2-hydroxyquinoline]
rePON1 (G3H8); Inhibition constant (Ki)
  Ki: 11 µM and 3 µM and 4.2 µM
rePON1 (G3H8); inhibition constants for phenyl-acetate, paraxon and L-HcyT hydrolysis
  Ki: 3 to 11 µM
[1]
  Ki: ~5 µM
